Test results: US8415507B2 (priority 2010, dated 2013)

Legend:
[1] = Relative humidity stability at ambient temperature, analyzed by XRPD; format: physicochemical
From the text: Upon completion of the duration allowed, the samples were immediately analyzed by XRPD.

[2] = solution supersaturated with respect to pterostilbene; after three days
Protocol: Solubility and concentration measurements were performed using ultraviolet (UV) spectroscopy on a Spectramax Microplate Reader.
Appropriate dilutions with water were made as necessary to maintain absorbance readings within the standard curve. All experiments were repeated three times to evaluate the standard deviation, while particle size was not controlled for any of the experiments.
Aliquots were centrifuged; supernatant was extracted, and appropriate dilutions were made to maintain absorbance readings within the standard curve. […] All experiments were repeated three times to evaluate the standard deviation, while particle size was not controlled for any of the experiments.

[3] = Lopez-Nicolas 2009; cited from earlier work
[4] = in vivo; cited from earlier work
[5] = format: physicochemical
Protocol: Intrinsic dissolution in 900 mL water at ambient conditions was also attempted. […] Therefore, a concentration vs. time and intrinsic dissolution rate value were unobtainable at these conditions.

With `Cn1c(=O)c2c(ncn2C)n(C)c1=O` [caffeine, reference compound] the “Conversion to hydrate at 75% RH” value ([1]; 75% RH, up to four weeks) was “does not display signs of conversion”, the “Time of partial conversion to hydrate at 94% RH” value ([1]; 94% RH) was “between one and three days” and the “Time of conversion to hydrate at 98% RH” value ([1]; 98% RH) was “less than one day”.

With `COc1cc(/C=C/c2ccc(O)cc2)cc(OC)c1.Cn1c(=O)c2c(ncn2C)n(C)c1=O` [cocrystal 1 (Form I), pterostilbene:caffeine] the “Outcome of slurrying in water” value [2] was “precipitation of pterostilbene”, the “Results (form by XRPD)” value ([1]; additional stress at 98% RH, 1 week (listed after 75% RH, 1 week)) was “cocrystal 1 (Form I), no caffeine hydrate” and the “Results (form by XRPD)” value ([1]; additional stress at 98% RH, 4 weeks (listed after 94% RH, 7 days)) was “cocrystal 1 (Form I), no caffeine hydrate”. The “Results (form by XRPD)” value ([1]; additional stress at 98% RH, 1 day (listed after 75% RH, 1 day)) was “cocrystal 1 (Form I), no caffeine hydrate” and the “Results (form by XRPD)” value ([1]; slurry, 2 days) was “cocrystal 1 (Form I), no caffeine hydrate”.

In the case of `COc1cc(/C=C/c2ccc(O)cc2)cc(OC)c1` [pterostilbene, trans-3,5-dimethoxy-4′-hydroxystilbene], the Solubility in water [3] is listed as “poor solubility in water” and the Bioavailability [4] is listed as “poor bioavailability”.

In the case of “pterostilbene:glutaric acid [cocrystal 3]”, the “XRPD result in intrinsic dissolution” value ([5]; 900 mL water at ambient conditions, after 30 minutes) is reported as “crystalline pterostilbene” and the “XRPD result in powder dissolution” value ([5]; slurrying in water at ambient, after 5 minutes) is reported as “crystalline pterostilbene”.
